# How the values were obtained:
# OGG1 = OGG1 (Homo sapiens (Human), UniProt O15527); assay: In vitro OGG1 activity assay; type: biochemical; conditions: 800 pM OGG1 enzyme, 2 nM human APEX1, 10 nM 8-oxoA:C substrate
# Outline: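 Fluorescence-release assay on a duplex oligonucleotide carrying an OGG1 substrate base beside a fluorophore, quenched from the complementary strand. Excess APEX1 cleaves the abasic site left by base excision, melting the duplex and unquenching the fluorophore. Compounds in DMSO were dispensed before enzyme and substrate, and fluorescein signal was read.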
# MLE12 cells = assay: Cell viability assay in MLE12 cells (resazurin); type: cell-based, mouse; conditions: Mus musculus, MLE12, 24 h, TNF-α 20 ng/ml, resazurin added after 24 hours culture
# Outline: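 MLE12 cells (7500 cells/well) were seeded onto 11-point duplicate compound dose-responses, with TNF-α (final 20 ng/ml) added after 1 hour at 37° C. After 24 hours, resazurin was added for 6 hours and resorufin fluorescence read (ex544 nm/em595 nm). EC50 values were calculated by curve fitting.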
# CCL2 = assay: Mouse CCL2 assay in MLE12 cells; type: cell-based; conditions: Mus musculus, MLE12, 30 h, MLE12 cells; TNF-α 20 ng/ml; supernatant after 30 hours; HTRF; read-out: CCL2 (EC50)
# Outline: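 MLE12 mouse lung epithelial cells (7500/well, DMEM/F12 with 5% FBS) preincubated 1 h with compounds (6-point dose-response, duplicate), then stimulated with TNF-α (final 20 ng/ml) for 30 h at 37 °C. Secreted CCL2 measured by HTRF sandwich immunoassay (Ex330/Em620, 665 nm) against standard curve; IC50 from delta ratios.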
# OGG1, sequence (O15527 whole entry): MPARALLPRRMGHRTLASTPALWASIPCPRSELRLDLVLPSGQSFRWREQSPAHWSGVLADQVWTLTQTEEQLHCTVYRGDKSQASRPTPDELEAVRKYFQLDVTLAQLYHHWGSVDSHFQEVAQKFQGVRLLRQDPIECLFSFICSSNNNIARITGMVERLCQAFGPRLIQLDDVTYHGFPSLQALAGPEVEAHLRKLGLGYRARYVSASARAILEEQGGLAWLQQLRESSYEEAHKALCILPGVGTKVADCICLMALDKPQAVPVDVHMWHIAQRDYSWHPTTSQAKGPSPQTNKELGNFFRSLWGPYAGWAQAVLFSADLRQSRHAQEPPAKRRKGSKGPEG
Compound,IC50 (OGG1) [µM],IC50 (MLE12 cells) [µM],EC50 (CCL2) [µM]
"COc1ncc(NC(=O)[C@H]2CC[C@@H](n3c(=O)[nH]c4c(Br)cccc43)CC2)cc1C [Example 168, (Cis)-4-(4-bromo-2-oxo-2,3-dihydro-1H-1,3-benzodiazol-1-yl)-N-(6-methoxy-5-methylpyridin-3-yl)cyclohexane-1-carboxamide]",0.044,14.4,32.6
"Cn1ncc2cc(NC(=O)[C@H]3CC[C@@H](n4c(=O)[nH]c5c(Br)cccc54)CC3)ccc21 [Example 171, (Cis)-4-(4-bromo-2-oxo-2,3-dihydro-1H-1,3-benzodiazol-1-yl)-N-(1-methyl-1H-indazol-5-yl)cyclohexane-1-carboxamide]",0.211,17.5,41.1
"COc1ccc(NC(=O)[C@H]2CC[C@@H](n3c(=O)[nH]c4c(Br)cccc43)CC2)cn1 [Example 183, Cis-4-(4-bromo-2-oxo-2,3-dihydro-1H-1,3-benzodiazol-1-yl)-N-(6-methoxypyridin-3-yl)cyclohexane-1-carboxamide]",0.174,17,36.2
"O=c1[nH]c2c(Br)cccc2n1[C@H]1CC[C@@H](C(=O)Nc2ccc(Cl)nc2)CC1 [Example 184, Cis-4-(4-bromo-2-oxo-2,3-dihydro-1H-1,3-benzodiazol-1-yl)-N-(6-chloropyridin-3-yl)cyclohexane-1-carboxamide]",0.325,7.86,16.8
"Cc1cc(NC(=O)[C@H]2CC[C@@H](n3c(=O)[nH]c4c(Br)cccc43)CC2)cnc1Cl [Example 187, Cis-4-(4-bromo-2-oxo-2,3-dihydro-1H-1,3-benzodiazol-1-yl)-N-(6-chloro-5-methylpyridin-3-yl)cyclohexane-1-carboxamide]",0.338,7.9,13
"O=c1[nH]c2c(Br)cccc2n1[C@H]1CC[C@@H](C(=O)Nc2ccc(O)cc2)CC1 [Example 191, Cis-4-(4-bromo-2-oxo-2,3-dihydro-1H-1,3-benzodiazol-1-yl)-N-(4-hydroxyphenyl)cyclohexane-1-carboxamide]",0.0557,29.8,33.5
"COc1ccc(NC(=O)[C@H]2CC[C@@H](n3c(=O)[nH]c4c(Br)cccc43)CC2)cc1OC [Example 192, Cis-4-(4-bromo-2-oxo-2,3-dihydro-1H-1,3-benzodiazol-1-yl)-N-(3,4-dimethoxyphenyl)cyclohexane-1-carboxamide]",0.0342,15.7,32.9
"Cc1cc(NC(=O)[C@H]2CC[C@@H](n3c(=O)[nH]c4c(Br)cccc43)CC2)ccc1O [Example 194, Cis-4-(4-bromo-2-oxo-2,3-dihydro-1H-1,3-benzodiazol-1-yl)-N-(4-hydroxy-3-methylphenyl)cyclohexane-1-carboxamide]",0.0172,15.6,33.5
"O=c1[nH]c2c(Br)cccc2n1[C@H]1CC[C@@H](C(=O)Nc2ccc3c(c2)OCCO3)CC1 [Example 197, Cis-4-(4-bromo-2-oxo-2,3-dihydro-1H-1,3-benzodiazol-1-yl)-N-(2,3-dihydro-1,4-benzodioxin-6-yl)cyclohexane-1-carboxamide]",0.0389,19.5,30.2
"Cc1n[nH]c2ccc(NC(=O)[C@H]3CC[C@@H](n4c(=O)[nH]c5c(Br)cccc54)CC3)cc12 [Example 199, Cis-4-(4-bromo-2-oxo-2,3-dihydro-1H-1,3-benzodiazol-1-yl)-N-(3-methyl-1H-indazol-5-yl)cyclohexane-1-carboxamide]",0.494,7.51,16.5
"O=c1[nH]c2c(Br)cccc2n1[C@H]1CC[C@@H](C(=O)Nc2ccc(O)c(Cl)c2)CC1 [Example 201, Cis-4-(4-bromo-2-oxo-2,3-dihydro-1H-1,3-benzodiazol-1-yl)-N-(3-chloro-4-hydroxyphenyl)cyclohexane-1-carboxamide]",0.0351,10.4,18.2
"COc1ncc(NC(=O)[C@H]2CC[C@@H](n3c(=O)[nH]c4c(Br)cccc43)CC2)cc1Cl [Example 202, Cis-4-(4-bromo-2-oxo-2,3-dihydro-1H-1,3-benzodiazol-1-yl)-N-(5-chloro-6-methoxypyridin-3-yl)cyclohexane-1-carboxamide]",0.0528,7.97,11.6
"O=c1[nH]c2c(Br)cccc2n1[C@H]1CC[C@@H](C(=O)Nc2ccc3ncccc3c2)CC1 [Example 204, Cis-4-(4-bromo-2-oxo-2,3-dihydro-1H-1,3-benzodiazol-1-yl)-N-(quinolin-6-yl)cyclohexane-1-carboxamide]",0.0656,7.93,12.9
"COc1ccc(NC(=O)[C@H]2CC[C@@H](n3c(=O)[nH]c4c(OC)cccc43)CC2)cc1C [Example 206, Cis-4-(4-methoxy-2-oxo-2,3-dihydro-1H-1,3-benzodiazol-1-yl)-N-(4-methoxy-3-methylphenyl)cyclohexane-1-carboxamide]",0.0154,26.7,33.7
"COc1cccc2c1[nH]c(=O)n2[C@H]1CC[C@@H](C(=O)Nc2ccc3cc[nH]c3c2)CC1 [Example 209, Cis-N-(1H-indol-6-yl)-4-(4-methoxy-2-oxo-2,3-dihydro-1H-1,3-benzodiazol-1-yl)cyclohexane-1-carboxamide]",0.402,21.5,34.9
"COc1ccc(NC(=O)[C@H]2CC[C@@H](n3c(=O)[nH]c4c(F)cccc43)CC2)cc1C [Example 212, Cis-4-(4-fluoro-2-oxo-2,3-dihydro-1H-1,3-benzodiazol-1-yl)-N-(4-methoxy-3-methylphenyl)cyclohexane-1-carboxamide]",0.00943,16.9,34.2
"Cc1ccc(NC(=O)[C@H]2CC[C@@H](n3c(=O)[nH]c4c(Br)cccc43)CC2)cc1O [Example 221, Cis-4-(4-bromo-2-oxo-2,3-dihydro-1H-1,3-benzodiazol-1-yl)-N-(3-hydroxy-4-methylphenyl)cyclohexane-1-carboxamide]",0.0272,7.84,15.2
"COc1cc(NC(=O)[C@H]2CC[C@@H](n3c(=O)[nH]c4c(-c5cccc(OCCN(C)C)c5)cccc43)CC2)ccc1C [Example 225, Cis-4-(4-{3-[2-(dimethylamino)ethoxy]phenyl}-2-oxo-2,3-dihydro-1H-1,3-benzodiazol-1-yl)-N-(3-methoxy-4-methylphenyl)cyclohexane-1-carboxamide]",0.0335,1.71,3.13
"COc1cc(NC(=O)[C@H]2CC[C@@H](n3c(=O)[nH]c4ccccc43)CC2)ccc1C [Example 226, Cis-N-(3-methoxy-4-methylphenyl)-4-(2-oxo-2,3-dihydro-1H-1,3-benzodiazol-1-yl)cyclohexane-1-carboxamide]",0.0779,17.1,34.1
"COc1cc(NC(=O)[C@H]2CC[C@@H](n3c(=O)[nH]c4c(O)cccc43)CC2)ccc1C [Example 227, Cis-4-(4-hydroxy-2-oxo-2,3-dihydro-1H-1,3-benzodiazol-1-yl)-N-(3-methoxy-4-methylphenyl)cyclohexane-1-carboxamide]",0.0179,16.5,27.5

# Source: patent US11970474B2, “Substituted benzodiazoles and use thereof in therapy” (THOMAS HELLEDAYS STIFTELSE FÖR MEDICINSK FORSKNING, priority 2018, dated 2024)
